Reference: patent publication US7442513B2, “Method of screening for agents that modulate a homer signaling pathway” (The Johns Hopkins University, priority 2003, dated 2008)

Tests used:
mGluR5 binding to Homer = assay: mGluR5 binding to GST-Homer after treating mGluR5-expressing HEK293 cells with PPIase inhibitors (pull-down, western blot); format: cell-based; settings: for effect on mGluR5 binding to GST-Homer: HEK293 cells expressing mGluR5, 1 micromolar in medium, differing intervals
Description: HEK293 cells were transfected with pRK5-mGluR5. 1 micromolar FK506 was added to the medium for differing intervals prior to harvesting and preparation of lysates in the indicated buffer, which include inhibitors of phosphatases and proteases. Lysates were mixed with glutathione agarose beads loaded with GST-Homer 3 EVH1 domain for 1 hr at 4 C. mGluR5 that bound to Homer was then analyzed by western blot. Lysates were also assayed to confirm expression of mGluR5 (lower panel). Note the increase in mGluR5 that binds to Homer from lysates of cells treated for 3 hrs or longer with FK506.
If PPIases regulate the conformational state of the mGluR5, it was anticipated that PPIase inhibitors would alter the ability of the mGluR5 to bind to Homer. To examine this hypothesis, Homer was expressed as a bacterial fusion protein with glutathione S-transferase (GST) and loaded the protein on a glutathione agarose bead. These binding assays are identical to those used previously to document the ligand consensus sequence in mGluR5 (Tu et al., 1998), and for analysis of the binding surfaces of Homer (Beneken et al., 2000).
Cells were treated for different times with PPIase inhibitors and then harvested in buffer containing protease and phosphatase inhibitors and 1% Triton detergent. Soluble lysates were then mixed with beads loaded with GST-Homer incubated for 1 hr at 4° C., washed several times and proteins eluted with SDS loading buffer. […] Increased binding was detected by 3 hrs and remained elevated for 24 hrs.

[1] = tested on: TrpC1 binding to Homer1EVH1; assay: TrpC1 binding to GST-Homer1 EVH1 after treating TrpC1-expressing HEK293 cells with FK506; format: cell-based; settings: 150 nM
Description: HEK293 cells that transiently express TrpC1 were treated with FK506 for indicted time prior to preparation of lysates and binding to GST-Homer. Note that FK506 treatment increases TrpC1 binding to Homer.
An observation from the Homer-TrpC1 binding data remained enigmatic. […] Additionally, certain point mutants of the C-terminal Homer ligand increase binding to Homer. […] The possibility that an FKBP homologue might bind mammalian TrpC1 and impact the binding of Homer was explored. As a first test of this hypothesis, the consequence of treating cells expressing TrpC1 with FK506, and then testing TrpC1 binding to GST-Homer was examined. HEK293 cells were transfected with wt TrpC1 and treated with 150 nM FK506 for times ranging from 15 min to 24 hrs. Cells lysates were prepared in 1% Triton and mixed with GST-Homer1 EVH1 and bound TrpC1 assayed by western blot. Lysates were also assayed to compare expression in each of the samples. […] This effect was detected as early as 30 min after addition of FK506 and persisted for 24 hrs. A peak of increased binding appeared at ˜6hrs. […] It was concluded that FK506 increases the binding of TrpC1 to Homer at a dose that is known to the relevant for FKBP.

TrpC1 binding to Homer = assay: TrpC1 binding to GSTHomer after treating lysates of TrpC1-expressing HEK293 cells; settings: for effect on TrpC1 binding to Homer: lysates treated with indicated concentrations
Description: TrpC1 was transiently expressed in HEK293 cells and lysates were treated with the indicated concentrations of FK506, GPI1046, cyclosporin A or aniracetam (negative control) and assayed for TrpC1 binding to GSTHomer. TrpC1 migrates as both a monomer and dimer. Note that FK506, GPI1046 and cyclosporin A (but not aniracetam) treatment results in increased TrpC1 binding to Homer.

[2] = target: T1, TrpC1 binding to GST-FKBP52 (Homo sapiens, UniProt Q02790); assay: TrpC1 binding to GST-FKBP52 after pretreating cell lysates with PPIase inhibitors
T1 construct: expressed in transfected cells; host or cells: HEK293 cell lysate (TrpC1)
T1 sequence (Q02790 1-459): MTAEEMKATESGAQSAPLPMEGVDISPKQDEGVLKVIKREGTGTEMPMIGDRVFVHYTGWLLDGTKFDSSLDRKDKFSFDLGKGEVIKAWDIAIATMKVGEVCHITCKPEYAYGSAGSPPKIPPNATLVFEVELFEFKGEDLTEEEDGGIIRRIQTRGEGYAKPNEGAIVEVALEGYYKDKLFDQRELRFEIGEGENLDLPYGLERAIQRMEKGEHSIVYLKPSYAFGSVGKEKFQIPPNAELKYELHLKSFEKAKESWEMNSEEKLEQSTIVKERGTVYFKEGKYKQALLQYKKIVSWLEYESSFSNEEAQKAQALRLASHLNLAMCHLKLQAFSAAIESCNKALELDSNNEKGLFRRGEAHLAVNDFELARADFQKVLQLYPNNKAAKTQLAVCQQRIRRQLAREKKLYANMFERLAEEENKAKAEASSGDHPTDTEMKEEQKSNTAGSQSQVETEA
Description: To further test this hypothesis, the binding of TrpC1 to GST-FKBP12 or GST-FKBP52 was examined. Also, the effect of pretreating cell lysates with FK506, GPI-1046, cyclosporin A or the control agent aniracetam (structurally similar to GPI-1946) was examined. The notion being that dissociation of endogenous FKBP would increase the availability of TrpC1 to bind GST-FKBP in vitro. The FK506 might also be expected to bind to GST-FKBP but because this protein is highly concentrated on the bead and is in vast excess to cellular FKBP, the net consequence of drug treatment would be increased binding of TrpC1 to GST-FKBP. In these assays, TrpC1 bound to FKBP52 (FIG. 15), but not to FKBP12. Binding of TrpC1 to GST-FKBP52 was increased by treatment with both FK506 and GPI1046. The effect of these agents was particularly robust for the dimeric TrpC1 species and was detected with 100 nM FK506 or GPI1046. These studies confirmed that TrpC1 is bound by Homer and FKBP52, and that treatment of cell lysates or cells with drugs that inhibit rotamase activity and dissociate rotamases from their target proteins, result in enhanced binding of TrpC1 to both Homer (FIG. 14) and FKBP52 (FIG. 15).

[3] = 1 micromolar, HEK293 cells expressing mGluR5

Row | concentration at which increased TrpC1 binding to GST-FKBP52 was detected ([2]; dimeric TrpC1 species, pretreated lysates) [nM] | effect on binding of TrpC1 to GST-FKBP52 ([2]; pretreated cell lysates) | Structure (SMILES) | time for which mGluR5 binding remained elevated (mGluR5 binding to Homer; [3]) [h] | earliest time at which increased TrpC1 binding was detected [1] [min] | time for which increased TrpC1 binding persisted [1] [h] | time of peak of increased TrpC1 binding [1] [h] | mGluR5 binding after 12 or 24 hrs of treatment (mGluR5 binding to Homer; 1 micromolar, 12 or 24 hrs) | effect on expression of mGluR5 in lysates (mGluR5 binding to Homer; 1 micromolar, HEK293 cells) | treatment time of peak mGluR5 binding (mGluR5 binding to Homer; [3]) [h] | treatment time within which mGluR5 binding increased (mGluR5 binding to Homer; [3]) [min] | effect on mGluR5 binding to GST-Homer (mGluR5 binding to Homer) | effect on mGluR5 binding to GST-Homer (mGluR5 binding to Homer; listed as GPI 1046) | effect on TrpC1 binding to Homer at 10 nM (TrpC1 binding to Homer; 10 nM) | effect on TrpC1 binding to Homer with higher doses or longer times (TrpC1 binding to Homer; doses higher than 10 nM or longer times) | effect on TrpC1 binding to Homer (TrpC1 binding to Homer) | effect on TrpC1 binding to Homer (TrpC1 binding to Homer; listed as GPI 1046)
1 | – | – | C=CC[C@@H]1/C=C(\C)C[C@H](C)C[C@H](OC)[C@H]2O[C@@](O)(C(=O)C(=O)N3CCCC[C@H]3C(=O)O[C@H](/C(C)=C/[C@@H]3CC[C@@H](O)[C@H](OC)C3)[C@H](C)[C@@H](O)CC1=O)[C@H](C)C[C@@H]2OC [FK506] | 24 | 30 | 24 | ~6 | – | – | – | – | – | – | – | – | – | –
2 | 100 | increased | CCC(C)(C)C(=O)C(=O)N1CCC[C@H]1C(=O)OCCCc1cccnc1 [GPI1046] | – | – | – | – | decreased | did not significantly alter | ≤ 3 | ≤ 30 | time-dependent increase | effective in increasing | potent enhancement | decreases | increased | enhanced
3 | – | – | COc1ccc(C(=O)N2CCCC2=O)cc1 [aniracetam] | – | – | – | – | – | – | – | – | – | – | – | – | not | –
